Entries after “also recorded” stand apart in the source; their conditions may differ. Each block holds one compound with its values, some of them ahead of it.
Legend:
[1] = tested on: MCF-7 Cell line; assay: MTT cell proliferation assay, MCF-7 Cell line; format: cell-based; conditions: for viability at 0.01 µM / viability at 0.1 µM / viability at 2.5 µM / viability at 5 µM / viability at 10 µM: Homo sapiens, MCF7, 72 h, MTT; for viability at 0.01 µM: MCF-7, 0.01 μM; for viability at 0.1 µM: MCF-7, 0.1 μM; for viability at 2.5 µM: MCF-7, 2.5 μM; for viability at 5 µM: MCF-7, 5 μM; for viability at 10 µM: MCF-7, 10 μM
Method: (§1) 1. Protocol Followed for Anti Cancer Activity and Results, Cell Proliferation Assays: Cell lines used herein were purchased from NCCS (National Center for Cell Sciences) Pune, India. Invitro Activity was performed in NCL (National Chemical Laboratory) Pune. Each cell line was plated in 96-well microtiter plates (10,000 cells per well), and serial dilutions of indicated compounds were added. At the end of the incubation period (72 h at 37° C.), cell viability was determined by a tetrazolium dye, MTT (3-(4,5-dimethylthiazol-2-yl)-2,5-diphenyl tetrazolium bromide) (Promega, USA). The formazan crystals were dissolved in DMSO, and the absorbance at 600 nm was recorded using an ELISA plate reader. IC50 values were calculated using nonlinear regression and defined as the concentration needed for a 50% reduction in absorbance of treated versus untreated control cells.
Table 4 indicates anticancer activity against A549 Cell line. The Gefitinib was used as standard and % cell Viable was measured compared to control. The procedure used was MTT assay as mentioned. […] By using the above procedure, the compounds of the invention were tested on MCF-7 Cell line and the results obtained are presented below in table 5, Refer FIG. 2.

[2] = tested on: MDA-MB-436 Cell line; assay: MTT cell proliferation assay, MDA-MB-436 Cell line; format: cell-based; conditions: for viability at 0.01 µM / viability at 0.1 µM / viability at 2.5 µM / viability at 5 µM / viability at 10 µM: Homo sapiens, 72 h, MTT; for viability at 0.01 µM: MDA-MB-436, 0.01 μM; for viability at 0.1 µM: MDA-MB-436, 0.1 μM; for viability at 2.5 µM: MDA-MB-436, 2.5 μM; for viability at 5 µM: MDA-MB-436, 5 μM; for viability at 10 µM: MDA-MB-436, 10 μM
Method: as §1
By using the above procedure, the compounds of the invention were tested on MDA-MB-436 Cell line and the results obtained are presented below in table 7, Refer FIG. 4.

[3] = Log P (Table 3); format: physicochemical; conditions: no method given
[4] = tested on: U87MG Cell line (Glioblastoma cell line); assay: MTT cell proliferation assay, U87MG Cell line; format: cell-based; conditions: for viability at 0.01 µM / viability at 0.1 µM / viability at 2.5 µM / viability at 5 µM / viability at 10 µM: Homo sapiens, U-87 MG, U87MG, 72 h, MTT
Method: as §1
By using the above procedure, the compounds of the invention were tested on U87MG Cell line (glioblastoma cell line) and the results obtained are presented below in table 8, Refer FIG. 5.

[5] = tested on: HOP-62 Cell line; assay: MTT cell proliferation assay, HOP-62 Cell line; format: cell-based; conditions: for viability at 0.01 µM / viability at 0.1 µM / viability at 2.5 µM / viability at 5 µM / viability at 10 µM: Homo sapiens, 72 h, MTT; for viability at 0.01 µM: HOP-62, 0.01 μM; for viability at 0.1 µM: HOP-62, 0.1 μM; for viability at 2.5 µM: HOP-62, 2.5 μM; for viability at 5 µM: HOP-62, 5 μM; for viability at 10 µM: HOP-62, 10 μM
Method: as §1
By using the above procedure, the compounds of the invention were tested on HOP-62 Cell line and the results obtained are presented below in table 6, Refer FIG. 3.

[6] = tested on: A549 Cell line (Lung Cancer Cell line); assay: MTT cell proliferation assay, A549 Cell line; format: cell-based, human; conditions: for viability at 0.01 µM / viability at 0.1 µM / viability at 2.5 µM / viability at 5 µM / viability at 10 µM: Homo sapiens, 72 h, MTT; for viability at 0.01 µM: A549, 0.01 μM; for viability at 0.1 µM: A549, 0.1 μM; for viability at 2.5 µM: A549, 2.5 μM; for viability at 5 µM: A549, 5 μM; for viability at 10 µM: A549, 10 μM
Method: as §1
By using the above procedure, the compounds of the invention were tested on A549 Cell line and the results obtained are presented below in table 4, Refer FIG. 1.

[7] = compared among 15 molecules and with Gefitinib, listed as M4

Compound: Nc1nc(Nc2ccc([N+](=O)[O-])cc2)sc1-c1nc2ccccc2[nH]1 [Molecule S4-M3, 5-(1H-benzo[d]imidazol-2-yl)-N^2-(4-nitrophenyl)thiazole-2,4-diamine]
- viability at 0.01 µM [1]: 99.6%
- viability at 0.1 µM [1]: 92.4%
- viability at 2.5 µM [1]: 90.8%
- viability at 5 µM [1]: 84.8%
- viability at 10 µM [1]: 72.8%
- viability at 0.01 µM [2]: 99.6%
- viability at 0.1 µM [2]: 94.4%
- viability at 2.5 µM [2]: 90.8%
- viability at 5 µM [2]: 79.8%
- viability at 10 µM [2]: 66.8%
- logP [3]: 3.32
- viability at 0.01 µM [4]: 96.6%
- viability at 0.1 µM [4]: 82.4%
- viability at 2.5 µM [4]: 69.8%
- viability at 5 µM [4]: 55.8%
- viability at 10 µM [4]: 30.8%
- viability at 0.01 µM [5]: 99.6%
- viability at 0.1 µM [5]: 94.4%
- viability at 2.5 µM [5]: 90.8%
- viability at 5 µM [5]: 90.8%
- viability at 10 µM [5]: 88.8%
- melting point: 260 to 262 °C
- viability at 0.01 µM [6]: 97.6%
- viability at 0.1 µM [6]: 90.4%
- viability at 2.5 µM [6]: 81.8%
- viability at 5 µM [6]: 71.8%
- viability at 10 µM [6]: 62.8%

Compound: Nc1nc(Nc2ccccc2[N+](=O)[O-])sc1-c1nc2ccccc2[nH]1 [Molecule S4-M4, 5-(1H-benzo[d]imidazol-2-yl)-N^2-(2-nitrophenyl)thiazole-2,4-diamine]
- viability at 0.01 µM [1]: 72.7%
- viability at 0.1 µM [1]: 61.2%
- viability at 2.5 µM [1]: 53.8%
- viability at 5 µM [1]: 42.9%
- viability at 10 µM [1]: 31.9%
- anticancer activity against MCF-7 Cell line (in words) ([1]; compared among 15 molecules, listed as M4): most active; also recorded: showing Invitro activity
- viability at 0.01 µM [2]: 69.7%
- viability at 0.1 µM [2]: 58.2%
- viability at 2.5 µM [2]: 42.8%
- viability at 5 µM [2]: 28.9%
- viability at 10 µM [2]: 21.9%
- anticancer activity against MDA-MB-436 Cell line (in words) [2, 7]: most active; also recorded: Invitro activity comparable to standard Gefitinib
- logP [3]: 3.33
- viability at 0.01 µM [4]: 45.7%
- viability at 0.1 µM [4]: 33.2%
- viability at 2.5 µM [4]: 22.8%
- viability at 5 µM [4]: 18.9%
- viability at 10 µM [4]: 8.86%
- anticancer activity against U87-MG Cell line (in words) ([4]; compared among 15 molecules): most active
- viability at 0.01 µM [5]: 43.1%
- viability at 0.1 µM [5]: 36.1%
- viability at 2.5 µM [5]: 25.7%
- viability at 5 µM [5]: 18.9%
- viability at 10 µM [5]: 12.4%
- anticancer activity against HOP-62 Cell line (in words) [5, 7]: most active; also recorded: Invitro activity comparable to standard Gefitinib
- melting point: 220 to 222 °C
- viability at 0.01 µM [6]: 57.1%
- viability at 0.1 µM [6]: 49.1%
- viability at 2.5 µM [6]: 34.7%
- viability at 5 µM [6]: 25.9%
- viability at 10 µM [6]: 18.4%
- anticancer activity against A549 Cell line (in words) ([6]; compared among 15 molecules and with Gefitinib): most active

Compound: Cc1cc(C)c(Nc2nc(N)c(-c3nc4ccccc4[nH]3)s2)c(C)c1 [Molecule S4-M6, 5-(1H-benzo[d]imidazol-2-yl)-N^2-mesitylthiazole-2,4-diamine]
- viability at 0.01 µM [1]: 112%
- viability at 0.1 µM [1]: 100%
- viability at 2.5 µM [1]: 101%
- viability at 5 µM [1]: 100%
- viability at 10 µM [1]: 100%
- viability at 0.01 µM [2]: 116%
- viability at 0.1 µM [2]: 112%
- viability at 2.5 µM [2]: 110%
- viability at 5 µM [2]: 105%
- viability at 10 µM [2]: 101%
- logP [3]: 2.11
- viability at 0.01 µM [4]: 91.3%
- viability at 0.1 µM [4]: 82.1%
- viability at 2.5 µM [4]: 70%
- viability at 5 µM [4]: 59%
- viability at 10 µM [4]: 42.4%
- viability at 0.01 µM [5]: 103%
- viability at 0.1 µM [5]: 100%
- viability at 2.5 µM [5]: 100%
- viability at 5 µM [5]: 100%
- viability at 10 µM [5]: 91%
- melting point: 218 to 220 °C
- viability at 0.01 µM [6]: 92.3%
- viability at 0.1 µM [6]: 85.1%
- viability at 2.5 µM [6]: 72%
- viability at 5 µM [6]: 61%
- viability at 10 µM [6]: 50%

Continued, in another order:

- logP [3]: 3.99
- melting point: 210 to 212 °C
Compound: Nc1nc(Nc2ccc(Cl)cc2)sc1-c1nc2ccccc2[nH]1 [Molecule S4-M5, 5-(1H-benzo[d]imidazol-2-yl)-N^2-(4-chlorophenyl)thiazole-2,4-diamine]
- viability at 0.01 µM [1]: 89.8%
- viability at 0.1 µM [1]: 83.6%
- viability at 2.5 µM [1]: 79.9%
- viability at 5 µM [1]: 72.9%
- viability at 10 µM [1]: 65.9%
- viability at 0.01 µM [2]: 99.8%
- viability at 0.1 µM [2]: 99.6%
- viability at 2.5 µM [2]: 99.9%
- viability at 5 µM [2]: 99.9%
- viability at 10 µM [2]: 98.9%
- viability at 0.01 µM [4]: 92.8%
- viability at 0.1 µM [4]: 80.6%
- viability at 2.5 µM [4]: 72.9%
- viability at 5 µM [4]: 60.9%
- viability at 10 µM [4]: 49.9%
- viability at 0.01 µM [5]: 101%
- viability at 0.1 µM [5]: 92.6%
- viability at 2.5 µM [5]: 88.9%
- viability at 5 µM [5]: 82.9%
- viability at 10 µM [5]: 75.9%
- viability at 0.01 µM [6]: 95.8%
- viability at 0.1 µM [6]: 85.6%
- viability at 2.5 µM [6]: 73.9%
- viability at 5 µM [6]: 65.9%
- viability at 10 µM [6]: 54.9%

- logP [3]: 3.2
- melting point: 200 to 202 °C
Compound: Nc1nc(Nc2ccc(Br)cc2F)sc1-c1nc2ccccc2[nH]1 [Molecule S4-M7, 5-(1H-benzo[d]imidazol-2-yl)-N^2-(4-bromo-2-fluorophenyl)thiazole-2,4-diamine]
- viability at 0.01 µM [1]: 100%
- viability at 0.1 µM [1]: 101%
- viability at 2.5 µM [1]: 101%
- viability at 5 µM [1]: 101%
- viability at 10 µM [1]: 101%
- viability at 0.01 µM [2]: 100%
- viability at 0.1 µM [2]: 99.9%
- viability at 2.5 µM [2]: 101%
- viability at 5 µM [2]: 93.8%
- viability at 10 µM [2]: 91.8%
- viability at 0.01 µM [4]: 98.1%
- viability at 0.1 µM [4]: 94.9%
- viability at 2.5 µM [4]: 93.8%
- viability at 5 µM [4]: 90.8%
- viability at 10 µM [4]: 85.8%
- viability at 0.01 µM [5]: 102%
- viability at 0.1 µM [5]: 101%
- viability at 2.5 µM [5]: 100%
- viability at 5 µM [5]: 100%
- viability at 10 µM [5]: 90.9%
- viability at 0.01 µM [6]: 97.1%
- viability at 0.1 µM [6]: 90.9%
- viability at 2.5 µM [6]: 81.8%
- viability at 5 µM [6]: 71.8%
- viability at 10 µM [6]: 62.8%

Source: patent publication US9862712B2, “Benzimidazole based EGFR inhibitors” (COUNCIL OF SCIENTIFIC & INDUSTRIAL RESEARCH, priority 2014, dated 2018)
